# Measured values: PubChem BioAssay AID238 (DTP/NCI, 2004)
# Values joined by “and” are separate entries in the source; they are usually repeats but may differ in a detail not shown here. Equal values may be shown once. Toxic doses and inconclusive results are not listed.
# Test system: CAF1 mice, leiomyosarcoma No.2 ip, survival T/C%
# Test: NCI In Vivo Anticancer Drug Screen. Data for tumor model Leiomyosarcoma (No. 2) (intraperitoneal) in CAF1 mice
# Settings: endpoint: mean survival time, higher = longer survival
# Method: The antitumor activity of compounds was measured in mice bearing transplantable tumors. Survival or tumor size were measured and the results are expressed as the measurement made in the treated group (T) divided by the measurement made in the vehicle treated control group (C). The tumor model used in this assay is Leiomyosarcoma (No. 2) (intraperitoneal) in CAF1 mice
# [1] = dose: 3.13 mg/kg/injection, schedule: Q01DX010 (ip), vehicle: saline
# [2] = dose: 6.25 mg/kg/injection, schedule: Q01DX010 (ip), vehicle: saline
# [3] = dose: 12.5 mg/kg/injection, schedule: Q01DX010 (ip), vehicle: saline
# [4] = dose: 25.0 mg/kg/injection, schedule: Q01DX010 (ip), vehicle: saline
# [5] = dose: 50.0 mg/kg/injection, schedule: Q01DX010 (ip), vehicle: saline
# [6] = dose: 20.0 mg/kg/injection, schedule: Q01DX010 (ip), vehicle: saline
# [7] = dose: 80.0 mg/kg/injection, schedule: Q01DX010 (ip), vehicle: saline
# [8] = dose: 6.0 mg/kg/injection, schedule: Q01DX010 (ip), vehicle: saline
# [9] = dose: 8.0 mg/kg/injection, schedule: Q01DX010 (ip), vehicle: saline
# [10] = dose: 31.3 mg/kg/injection, schedule: Q01DX010 (ip), vehicle: saline
# [11] = dose: 125.0 mg/kg/injection, schedule: Q01DX010 (ip), vehicle: saline
# [12] = dose: 250.0 mg/kg/injection, schedule: Q01DX010 (ip), vehicle: saline
# [13] = dose: 5.0 mg/kg/injection, schedule: Q01DX010 (ip), vehicle: saline
# [14] = dose: 10.0 mg/kg/injection, schedule: Q01DX010 (ip), vehicle: saline
# [15] = dose: 40.0 mg/kg/injection, schedule: Q01DX010 (ip), vehicle: saline
# [16] = dose: 62.5 mg/kg/injection, schedule: Q01DX010 (ip), vehicle: saline
# [17] = dose: 100.0 mg/kg/injection, schedule: Q01DX010 (ip), vehicle: saline
# [18] = dose: 200.0 mg/kg/injection, schedule: Q01DX010 (ip), vehicle: saline
# [19] = dose: 16.0 mg/kg/injection, schedule: Q01DX010 (ip), vehicle: saline
# [20] = dose: 0.5 mg/kg/injection, schedule: Q01DX010 (ip), vehicle: saline
# [21] = dose: 1.0 mg/kg/injection, schedule: Q01DX010 (ip), vehicle: saline
# [22] = dose: 2.0 mg/kg/injection, schedule: Q01DX010 (ip), vehicle: saline
# [23] = dose: 4.0 mg/kg/injection, schedule: Q01DX010 (ip), vehicle: saline
# [24] = dose: 12.5 mg/kg/injection, schedule: Q01DX010 (sc), vehicle: steriod suspending solution
# [25] = dose: 25.0 mg/kg/injection, schedule: Q01DX010 (sc), vehicle: steriod suspending solution
# [26] = dose: 50.0 mg/kg/injection, schedule: Q01DX010 (sc), vehicle: steriod suspending solution
# [27] = dose: 250.0 micrograms/kg/injection, schedule: Q01DX010 (ip), vehicle: saline
# [28] = dose: 500.0 micrograms/kg/injection, schedule: Q01DX010 (ip), vehicle: saline
# [29] = dose: 2.5 mg/kg/injection, schedule: Q01DX010 (ip), vehicle: saline
# [30] = dose: 32.0 mg/kg/injection, schedule: Q01DX010 (ip), vehicle: saline
# [31] = dose: 64.0 mg/kg/injection, schedule: Q01DX010 (ip), vehicle: saline
# [32] = dose: 3.0 mg/kg/injection, schedule: Q01DX010 (ip), vehicle: saline
# [33] = dose: 12.0 mg/kg/injection, schedule: Q01DX010 (ip), vehicle: saline
smiles,measurement,setting,value
O=NN(CCCl)C(=O)NCCCl,T/C,[1],300 % of control
same,T/C,[2],258 % of control and 300 % of control
same,T/C,[3],115 % of control and 120 % of control
COS(C)(=O)=O,T/C,[3],108 % of control
same,T/C,[4],108 % of control
same,T/C,[5],112 % of control
OCC1OC(n2cnc3c(=S)nc[nH]c32)C(O)C1O (centres undefined),T/C,[6],161 % of control and 248 % of control
same,T/C,[7],153 % of control
same,T/C,"dose: 160.0 mg/kg/injection, schedule: Q01DX010 (ip), vehicle: saline",87 % of control
O=C(Nc1ccc(C2=NCCN2)cc1)c1ccc(C(=O)Nc2ccc(C3=NCCN3)cc2)c([N+](=O)[O-])c1,T/C,[8],121 % of control
same,T/C,[9],113 % of control
CCCSc1ncnc2nc[nH]c12,T/C,[10],189 % of control and 233 % of control
same,T/C,[11],103 % of control and 117 % of control
same,T/C,[12],103 % of control
CN(C)c1ccc(/C=C/c2ccnc3ccccc23)cc1,T/C,[13],96 % of control and 112 % of control
same,T/C,[14],112 % of control
same,T/C,[6],112 % of control
same,T/C,[15],100 % of control
CC(=O)N(C)C,T/C,[16],90 % of control
same,T/C,[12],96 % of control
C[C@H]1C(=O)O[C@@H]2CCN3CC=C(COC(=O)[C@](C)(O)[C@@]1(C)O)[C@H]23,T/C,[1],100 % of control
same,T/C,[2],94 % of control and 109 % of control
same,T/C,[3],86 % of control and 118 % of control
same,T/C,[4],108 % of control and 118 % of control
CSc1ncnc2nc[nH]c12,T/C,[4],100 % of control and 109 % of control
same,T/C,[5],104 % of control and 109 % of control
same,T/C,[17],104 % of control and 113 % of control
same,T/C,[18],100 % of control
O=C(Nc1ccc(C2=NCCN2)cc1)c1cccc(C(=O)Nc2ccc(C3=NCCN3)cc2)c1,T/C,[9],260 % of control and 300 % of control
same,T/C,[19],257 % of control and 260 % of control
Nc1nc(F)nc2c1ncn2C1OC(CO)C(O)C1O (centres undefined),T/C,[20],104 % of control
same,T/C,[21],104 % of control and 113 % of control
same,T/C,[22],100 % of control and 109 % of control
same,T/C,[23],113 % of control and 118 % of control
same,T/C,[9],86 % of control
C[C@]12C=CC(=O)C=C1CC[C@@H]1[C@@H]2[C@@H](O)C[C@@]2(C)[C@H]1CC[C@]2(O)C(=O)CO,T/C,[24],86 % of control and 107 % of control
same,T/C,[25],92 % of control and 93 % of control
same,T/C,[26],100 % of control and 107 % of control
C#CCN(C)Cc1ccccc1,T/C,[5],102 % of control
same,T/C,[17],88 % of control
same,T/C,[18],91 % of control
CC(=O)NC1=C(N2CC2)C(=O)C(NC(C)=O)=C(N2CC2)C1=O,T/C,"dose: 0.25 mg/kg/injection, schedule: Q01DX010 (ip), vehicle: saline",163 % of control
same,T/C,[20],222 % of control
same,T/C,[21],300 % of control
same,T/C,[22],100 % of control
same,T/C,[27],195 % of control
same,T/C,[28],195 % of control
same,T/C,"dose: 1000.0 micrograms/kg/injection, schedule: Q01DX010 (ip), vehicle: saline",300 % of control
Clc1ncnc2nc[nH]c12,T/C,"dose: 7.5 mg/kg/injection, schedule: Q01DX010 (ip), vehicle: saline",86 % of control and 107 % of control
same,T/C,"dose: 15.0 mg/kg/injection, schedule: Q01DX010 (ip), vehicle: saline",93 % of control and 103 % of control
same,T/C,"dose: 30.0 mg/kg/injection, schedule: Q01DX010 (ip), vehicle: saline",111 % of control and 116 % of control
same,T/C,"dose: 60.0 mg/kg/injection, schedule: Q01DX010 (ip), vehicle: saline",107 % of control
CN(C)c1nc(N(C)C)nc(N(C)C)n1,T/C,"dose: 18.8 mg/kg/injection, schedule: Q01DX010 (ip), vehicle: saline",100 % of control and 108 % of control
same,T/C,"dose: 37.5 mg/kg/injection, schedule: Q01DX010 (ip), vehicle: saline",89 % of control and 112 % of control
same,T/C,"dose: 75.0 mg/kg/injection, schedule: Q01DX010 (ip), vehicle: saline",96 % of control and 104 % of control
same,T/C,"dose: 150.0 mg/kg/injection, schedule: Q01DX010 (ip), vehicle: saline",110 % of control
N=C(N)SCc1c2ccccc2c(CSC(=N)N)c2ccccc12,T/C,[29],172 % of control
same,T/C,[13],186 % of control and 209 % of control
same,T/C,[14],177 % of control and 204 % of control
same,T/C,[6],109 % of control and 209 % of control
same,T/C,[15],104 % of control
Oc1cc(CN(CCCl)CCCl)c(O)cc1CN(CCCl)CCCl,T/C,"dose: 0.31 mg/kg/injection, schedule: Q01DX010 (ip), vehicle: saline",162 % of control
same,T/C,"dose: 0.63 mg/kg/injection, schedule: Q01DX010 (ip), vehicle: saline",159 % of control
same,T/C,"dose: 1.25 mg/kg/injection, schedule: Q01DX010 (ip), vehicle: saline",159 % of control and 175 % of control and 184 % of control
same,T/C,[29],186 % of control
same,T/C,[13],118 % of control
C=CC(CN1CC1)OC(C)=O (centres undefined),T/C,[22],104 % of control
same,T/C,[9],176 % of control
c1ccc(CNc2ncnc3[nH]ncc23)cc1,T/C,[9],95 % of control and 103 % of control
same,T/C,[19],92 % of control and 100 % of control
same,T/C,[30],92 % of control and 100 % of control
same,T/C,[31],95 % of control and 96 % of control
Nc1ncnc2[nH]ncc12,T/C,"dose: 1.5 mg/kg/injection, schedule: Q01DX010 (ip), vehicle: saline",107 % of control and 112 % of control
same,T/C,[32],103 % of control and 108 % of control
same,T/C,[8],96 % of control and 100 % of control
same,T/C,[33],88 % of control and 95 % of control
CS(=O)(=O)OCC(O)C(O)C(O)C(O)COS(C)(=O)=O (centres undefined),T/C,[4],104 % of control
same,T/C,[5],109 % of control and 113 % of control
same,T/C,[17],118 % of control
same,T/C,[18],118 % of control
O=c1c(O)cccc2cc(O)c(O)c(O)c12,T/C,[4],88 % of control
same,T/C,[5],102 % of control
Nc1nc(SCc2ccccc2)c2[nH]cnc2n1,T/C,[9],112 % of control and 115 % of control
same,T/C,[19],100 % of control
same,T/C,[30],107 % of control and 120 % of control
same,T/C,[31],103 % of control and 104 % of control
C[C@@H]1C[C@@H]([C@H](O)CC2CC(=O)NC(=O)C2)C(=O)[C@@H](C)C1,T/C,[13],100 % of control and 103 % of control
same,T/C,[14],110 % of control and 111 % of control
same,T/C,[6],116 % of control
same,T/C,[15],163 % of control and 169 % of control
CS(=O)(=O)OCCCCOS(C)(=O)=O,T/C,[2],100 % of control
same,T/C,[3],96 % of control and 123 % of control
same,T/C,[4],103 % of control
same,T/C,[5],86 % of control
CCn1cnc2c(=S)nc[nH]c21,T/C,"dose: 15.6 mg/kg/injection, schedule: Q01DX010 (ip), vehicle: saline",100 % of control and 108 % of control
same,T/C,[10],96 % of control and 100 % of control
same,T/C,[16],100 % of control and 119 % of control
same,T/C,[11],112 % of control
O[C@H](CN1CC1)[C@@H](O)CN1CC1,T/C,"dose: 125.0 micrograms/kg/injection, schedule: Q01DX010 (ip), vehicle: saline",150 % of control
same,T/C,[27],179 % of control
same,T/C,[28],204 % of control
O=C(Nc1ccc(NC2=NCCN2)cc1)c1ccc(C(=O)Nc2ccc(NC3=NCCN3)cc2)cc1,T/C,[22],103 % of control and 123 % of control
same,T/C,[9],123 % of control
same,T/C,[19],107 % of control
N=C(N)c1ccc(Nc2ccc(C(=N)N)cc2)cc1,T/C,[32],108 % of control
same,T/C,[8],104 % of control
same,T/C,[33],100 % of control
O=c1[nH]c(=O)n(C2CC(O)C(CO)O2)cc1F (centres undefined),T/C,[13],118 % of control
same,T/C,[14],118 % of control
CCCCOP(=S)(N1CC1)N1CC1,T/C,[23],165 % of control
same,T/C,[9],223 % of control
same,T/C,[19],250 % of control
Cn1c(N)nc2nc[nH]c2c1=S,T/C,[14],100 % of control
same,T/C,[6],120 % of control
same,T/C,[15],104 % of control
same,T/C,[7],108 % of control
CC/C(=C(/CC)c1ccc(O)cc1)c1ccc(O)cc1,T/C,[24],91 % of control and 96 % of control
same,T/C,[25],96 % of control and 100 % of control
same,T/C,[26],91 % of control and 92 % of control
same,T/C,"dose: 100.0 mg/kg/injection, schedule: Q01DX010 (sc), vehicle: steriod suspending solution",91 % of control and 100 % of control
CN1CC[C@]23c4c5ccc(O)c4O[C@H]2C(=O)CC[C@H]3[C@H]1C5,T/C,[23],96 % of control
same,T/C,[9],92 % of control
same,T/C,[19],104 % of control
same,T/C,[30],92 % of control
